These are literature values, as cited in patent publication US20040204435A1, “Alternating treatment with topoisomerase I and topoisomerase II inhibitors” (priority 2003, published 2004).

For data set [1] the following is noted: for clinical effectiveness: cancer patients.
The conditions of data set [2]: mouse plasma.
For data set [3] the following is noted: humans, plasma.
Assay in data set [4]: not given
The source holds these as a separate data set.

For data set [5] the following is noted: carboxylate versus CPT (lactone).

Take `CC[C@@]1(O)C(=O)OCc2c1cc1n(c2=O)Cc2cc3ccccc3nc2-1` [CPT, Camptothecin]: in the data set on human tumor xenografts, the “effect on human tumor xenografts in nude mice” value (shortened to “effect … in nude mice”) is given as “completely eradicate”. Besides, in data set [1], the clinical effectiveness entry is “much less effective in cancer patients than in mice”. Besides, in data set [1] (clinical trials (9NC: phase I-II)), the dose-limiting toxicity result was “diarrhea”.

For `CCc1c2c(nc3ccc(OC(=O)N4CCC(N5CCCCC5)CC4)cc13)-c1cc3c(c(=O)n1C2)COC(=O)[C@]3(O)CC` [Camptosar, irinotecan], the solubility in water result is “water soluble”.

In the case of `CC[C@@]1(O)C(=O)OCc2c1cc1n(c2=O)Cc2cc3c([N+](=O)[O-])cccc3nc2-1` [9NC, 9-nitrocamptothecin], in the data set with human tumor xenografts, the “effect … in nude mice” value is “completely eradicate”. Further, the “administered dose circulating as active lactone form” value in data set [2] is recorded as “Up to 50%”. In data set [1], the clinical effectiveness entry is listed as “less effective against human pancreas tumors in humans than against human cancer xenografts in nude mice”. For the same molecule, the “drug circulating as lactone” value in data set [3] was 2-5%.

Take `CC[C@@]1(O)C(=O)OCc2c1cc1n(c2=O)Cc2cc3c(N)cccc3nc2-1` [9-aminocamptothecin]: the “effect … in nude mice” value in the data set on human tumor xenografts is “completely eradicate”. Further, the clinical effectiveness entry in data set [1] is listed as “insufficiently effective”.

Consider `CC[C@@]1(O)C(=O)OCc2c1cc1n(c2=O)Cc2cc3c(CN(C)C)c(O)ccc3nc2-1` [Topotecan], for which the solubility in water result is reported as “water soluble”.

On to `CC[C@@](O)(C(=O)[O-])c1cc2n(c(=O)c1CO)Cc1cc3ccccc3nc1-2.[Na+]` [sodium salt of CPT], for which, in data set [4] (in vivo), the toxicities result was “myelosuppression, diarrhea and cystitis”. In data set [4] (phase I and II trials 1970-1972), the clinical benefit result is on record as “no clinical benefit”.

Turning to `CCC(O)(C(=O)O)c1cc2n(c(=O)c1CO)Cc1cc3ccccc3nc1-2` (stereo not shown) [CPT carboxylate], the solubility in water entry is on record as “soluble”. In addition, in data set [5], the “anticancer activity relative to CPT” value was approximately 10%.

Take `CC[C@@]1(O)C(=O)OCc2c1cc1n(c2=O)Cc2cc3ccccc3nc2-1` [CPT lactone]: the solubility in water result is on record as “insoluble”.
